Experimental data published in US20020137929A1, “1 - (3-heterocyclylphenyl) isothiourea, -isourea, -guanidine and -amidine herbicidal agents” (Intellectual Property Department, BASF Aktiengesellschaft, priority 1998, published 2002).

Legend:
ORYSAT (Rice, Tebonnet) [1] = assay: Postemergence herbicidal evaluation; format: in vivo, Oryza sativa, (L.) Tebonnet
Procedure, shortened: (§1)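 Herbicidal effect was judged by eye on a 0–9 scale covering stand, vigor, deformity, size and chlorosis, compared with controls, four to five weeks after seedlings about two weeks old were sprayed (40 psi, ~0.0156–0.500 kg/ha).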

ORYSAT (Rice, Tebonnet) [2] = assay: Preemergence herbicidal evaluation; format: in vivo, Oryza sativa, (L.) Tebonnet; details: rated 4-5 weeks after treatment
Procedure, shortened: (§2)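 Greenhouse preemergence test: seed-soil mix sown on ~1 inch soil; aqueous acetone spray at equivalent of ~0.0156–0.500 kg/ha; greenhouse-held and watered; scored 0–9 visually at 4–5 weeks.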

ZEAMX (Corn, Field) = assay: Postemergence herbicidal evaluation; format: in vivo, Zea mays
Procedure, shortened: as §1

SETVI (Foxtail, Green) = assay: Preemergence herbicidal evaluation; format: in vivo, Setaria viridis; details: rated 4-5 weeks after treatment
Procedure, shortened: as §2

GALAP (Galium) = assay: Postemergence herbicidal evaluation; format: in vivo, Galium aparine
Procedure, shortened: as §1

CYPSE (Flatsedge) [3] = assay: Postemergence weed control under flooded paddy conditions; format: in vivo, Cyperus serotinus; details: rate 0.2500 kg/ha, postemergence weeds, 3-4 weeks after treatment
Procedure, shortened: (§3)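 Containers holding 3–5 cm weeds and rice at 1.5–2.5 leaves are flooded to 1.5–3 cm above soil. Compound in 50/50 v/v aqueous/acetone is then added directly to the water, about 0.0313–0.500 kg/ha. Plants are kept in the greenhouse and rated 0–9 visually at 3–4 weeks.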

[4] = tested on: CHEAL (Lambsquarters, Common); assay: Postemergence herbicidal evaluation; format: in vivo, Chenopodium album
Procedure, shortened: as §1

CYPIR (Rice Flatsedge) = assay: Postemergence weed control under flooded paddy conditions; format: in vivo, Cyperus iria; details: rate 0.2500 kg/ha, postemergence weeds, 3-4 weeks after treatment
Procedure, shortened: as §3

AMBEL (Ragweed, Common) = assay: Preemergence herbicidal evaluation; format: in vivo, Ambrosia artemisifolia; details: rated 4-5 weeks after treatment
Procedure, shortened: as §2

[5] = tested on: SAGPY (Arrowhead (Pygmaea)); assay: Postemergence weed control under flooded paddy conditions; format: in vivo, Sagittaria pygmaea; details: rate 0.2500 kg/ha, postemergence weeds, 3-4 weeks after treatment
Procedure, shortened: as §3

CYPSE (Flatsedge) [6] = assay: Preemergence weed control under flooded paddy conditions; format: in vivo, Cyperus serotinus; details: 0.2500 kg/ha, rated 3-4 weeks after treatment
Procedure, shortened: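 Using flooded silt loam (water 1.5 to 3 cm deep), seeds sown in the top 0.5 cm were exposed preemergence to compound pipetted into the flood at about 0.0313 to 0.500 kg/ha. Effects were scored 0-9 by eye three to four weeks later.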

CASOB (Sicklepod) = assay: Postemergence herbicidal evaluation; format: in vivo, Cassia obtusifolia
Procedure, shortened: as §1

[7] = tested on: GLXMAW (Soybean, Williams); assay: Preemergence herbicidal evaluation; format: in vivo, Glycine max, (L.) Merr. cv Williams; details: rated 4-5 weeks after treatment
Procedure, shortened: as §2

Q: With `CCOC(=O)CN1C(=O)C(CC(=O)O)SC1=Nc1cc(-n2c(=O)cc(C(F)(F)F)n(C)c2=O)c(Cl)cc1Cl` (stereo not drawn) [Compound 33, 2-{{2,4-Dichloro-5-[3,6-dihydro-3-methyl-2,6-dioxo-4-(trifluoromethyl)-1(2H)-pyrimidinyl]phenyl}-imino}-4-oxo-3,5-thiazolidinediacetic acid, 3-ethyl ester] as the molecule, how does the “Postemergence herbicidal rating ORYSAT” value (ORYSAT (Rice, Tebonnet) [1]; Rate 0.0158 kg/ha) read?
A: The value was 0.5.

Q: And the “Postemergence herbicidal rating ORYSAT” value (ORYSAT (Rice, Tebonnet) [1]; Rate 0.0315 kg/ha)?
A: Its value is 2.0.

Q: And the “Postemergence herbicidal rating ORYSAT” value (ORYSAT (Rice, Tebonnet) [1]; Rate 0.0630 kg/ha)?
A: Its value is 2.0.

Q: What about the “Preemergence herbicidal rating ORYSAT” value (ORYSAT (Rice, Tebonnet) [2]; rate 0.0156 kg/ha) of the same molecule?
A: Its value is 0.0.

Q: And the “Preemergence herbicidal rating ORYSAT” value (ORYSAT (Rice, Tebonnet) [2]; rate 0.0313 kg/ha)?
A: The value was 0.0.

Q: And the “Preemergence herbicidal rating ORYSAT” value (ORYSAT (Rice, Tebonnet) [2]; rate 0.0625 kg/ha)?
A: The value was 0.0.

Q: What about the “Preemergence herbicidal rating ORYSAT” value (ORYSAT (Rice, Tebonnet) [2]; rate 0.1250 kg/ha) of the same molecule?
A: Its value is 0.0.

Q: And the “Preemergence herbicidal rating ORYSAT” value (ORYSAT (Rice, Tebonnet) [2]; rate 0.2500 kg/ha)?
A: The value was 0.0.

Q: And the “Postemergence herbicidal rating ZEAMX” value (ZEAMX (Corn, Field); Rate 0.0158 kg/ha)?
A: Its value is 7.5.

Q: What about the “Postemergence herbicidal rating ZEAMX” value (ZEAMX (Corn, Field); Rate 0.0315 kg/ha) of the same molecule?
A: The value was 8.0.

Q: And the “Postemergence herbicidal rating ZEAMX” value (ZEAMX (Corn, Field); Rate 0.0630 kg/ha)?
A: Its value is 8.5.

Q: What about the “Preemergence herbicidal rating SETVI” value (SETVI (Foxtail, Green); rate 0.0156 kg/ha) of the same molecule?
A: The value was 0.0.

Q: And the “Preemergence herbicidal rating SETVI” value (SETVI (Foxtail, Green); rate 0.0313 kg/ha)?
A: The value was 0.0.

Q: And the “Preemergence herbicidal rating SETVI” value (SETVI (Foxtail, Green); rate 0.0625 kg/ha)?
A: Its value is 3.0.

Q: And the “Preemergence herbicidal rating SETVI” value (SETVI (Foxtail, Green); rate 0.1250 kg/ha)?
A: The value was 3.0.

Q: What about the “Preemergence herbicidal rating SETVI” value (SETVI (Foxtail, Green); rate 0.2500 kg/ha) of the same molecule?
A: The value was 9.0.

Q: And the “Postemergence herbicidal rating GALAP” value (GALAP (Galium); Rate 0.0158 kg/ha)?
A: Its value is 3.0.

Q: What about the “Postemergence herbicidal rating GALAP” value (GALAP (Galium); Rate 0.0315 kg/ha) of the same molecule?
A: Its value is 4.0.

Q: What about the “Postemergence herbicidal rating GALAP” value (GALAP (Galium); Rate 0.0630 kg/ha) of the same molecule?
A: Its value is 5.0.

Q: And the “Herbicidal rating CYPSE” value (CYPSE (Flatsedge) [3])?
A: The value was 0.0.

Q: What about the “Postemergence herbicidal rating CHEAL” value ([4]; Rate 0.0158 kg/ha) of the same molecule?
A: Its value is 9.0.

Q: And the “Postemergence herbicidal rating CHEAL” value ([4]; Rate 0.0315 kg/ha)?
A: Its value is 9.0.

Q: And the “Postemergence herbicidal rating CHEAL” value ([4]; Rate 0.0630 kg/ha)?
A: The value was 9.0.

Q: And the “Herbicidal rating CYPIR” value (CYPIR (Rice Flatsedge))?
A: The value was 0.0.

Q: And the “Preemergence herbicidal rating AMBEL” value (AMBEL (Ragweed, Common); rate 0.0156 kg/ha)?
A: The value was 0.0.

Q: What about the “Preemergence herbicidal rating AMBEL” value (AMBEL (Ragweed, Common); rate 0.0313 kg/ha) of the same molecule?
A: The value was 0.0.

Q: What about the “Preemergence herbicidal rating AMBEL” value (AMBEL (Ragweed, Common); rate 0.0625 kg/ha) of the same molecule?
A: The value was 9.0.

Q: What about the “Preemergence herbicidal rating AMBEL” value (AMBEL (Ragweed, Common); rate 0.1250 kg/ha) of the same molecule?
A: Its value is 9.0.

Q: And the “Preemergence herbicidal rating AMBEL” value (AMBEL (Ragweed, Common); rate 0.2500 kg/ha)?
A: The value was 9.0.

Q: What about the “Herbicidal rating SAGPY” value [5] of the same molecule?
A: Its value is 0.0.

Q: And the “Herbicidal rating CYPSE” value (CYPSE (Flatsedge) [6])?
A: Its value is 0.0.

Q: What about the “Postemergence herbicidal rating CASOB” value (CASOB (Sicklepod); Rate 0.0158 kg/ha) of the same molecule?
A: The value was 0.0.

Q: What about the “Postemergence herbicidal rating CASOB” value (CASOB (Sicklepod); Rate 0.0315 kg/ha) of the same molecule?
A: Its value is 1.0.

Q: What about the “Postemergence herbicidal rating CASOB” value (CASOB (Sicklepod); Rate 0.0630 kg/ha) of the same molecule?
A: The value was 5.0.

Q: And the “Preemergence herbicidal rating GLXMAW” value ([7]; rate 0.0156 kg/ha)?
A: The value was 0.0.

Q: And the “Preemergence herbicidal rating GLXMAW” value ([7]; rate 0.0313 kg/ha)?
A: The value was 0.0.

Q: And the “Preemergence herbicidal rating GLXMAW” value ([7]; rate 0.0625 kg/ha)?
A: The value was 0.0.

Q: What about the “Preemergence herbicidal rating GLXMAW” value ([7]; rate 0.1250 kg/ha) of the same molecule?
A: The value was 0.0.

Q: And the “Preemergence herbicidal rating GLXMAW” value ([7]; rate 0.2500 kg/ha)?
A: The value was 0.0.
